Test results from ChEMBL document CHEMBL1201862, “PubChem BioAssay data set” (2004).
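In this assay, cells in 96-well plates receive the compound at five concentrations for 48 hours. Endpoints are linearly interpolated between the surrounding concentrations. At the GI50, growth is halved.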 Activity calls are given as the source filed them. Cut-off read from the data, not from the text of the source: active = GI50 up to about 1.1 µM and inactive = higher.

Experiments:
Assay in all cases: growth of human tumour cells (NCI), 48 h
SK-MEL-5 = system: SK-MEL-5
DU-145 = system: DU-145
SF-268 = system: SF-268
786-0 = system: 786-0
SK-MEL-28 = system: SK-MEL-28
HOP-92 = system: HOP-92
OVCAR-5 = system: OVCAR-5
T47D = system: T47D
PC-3 = system: PC-3
BT-549 = system: BT-549
SNB-19 = system: SNB-19
CCRF-CEM = system: CCRF-CEM
NCI-H522 = system: NCI-H522
EKVX = system: EKVX
SK-OV-3 = system: SK-OV-3
NCI-H23 = system: NCI-H23
HCT-116 = system: HCT-116
M14 = system: M14
LOX IMVI = system: LOX IMVI
NCI/ADR-RES = system: NCI/ADR-RES

**Q.** What does the source list for `CC(=O)Nc1c2sscc-2n(C)c1=O` [THIOLUTIN]?
**A.** GI50 (SK-MEL-5): 1330 nM (inactive); GI50 (DU-145): 634 nM (active); GI50 (SF-268): 1560 nM (inactive); GI50 (786-0): 1520 nM (inactive); GI50 (SK-MEL-28): 1370 nM (inactive); GI50 (HOP-92): 2230 nM (inactive); GI50 (OVCAR-5): 1600 nM (inactive); GI50 (T47D): 1580 nM (inactive); GI50 (PC-3): 1580 nM (inactive); GI50 (BT-549): 1430 nM (inactive); GI50 (SNB-19): 1960 nM (inactive); GI50 (CCRF-CEM): 282 nM (active); GI50 (NCI-H522): 1300 nM (inactive); GI50 (EKVX): 1870 nM (inactive); GI50 (SK-OV-3): 1200 nM (inactive); GI50 (NCI-H23): 853 nM (active); GI50 (HCT-116): 695 nM (active); GI50 (M14): 314 nM (active); GI50 (LOX IMVI): 1860 nM (inactive); GI50 (NCI/ADR-RES): 1160 nM (inactive)
